No end group written: not given here.
What was measured:
[1] = test system: trypsin; test: trypsin binding of individual yeast-displayed EETI loop 3 clones by dual-color flow cytometry; details: triplicate; for trypsin binding level as percentage of EETIwt / trypsin binding level relative to EETIwt (fold higher): adjusted for expression (cMyc), normalized to EETIwt; for statistical significance of trypsin binding level over the highest-binding randomly-generated clone: single-factor ANOVA (p<0.02), 25 nM trypsin; for trypsin binding level relative to EETIwt (fold higher): single-factor ANOVA p<0.05 vs EETIwt
Text: In addition, we also constructed twenty-five clones where EETI loop 3 was replaced by a randomly-generated nine-amino acid sequence (Table S2). Plasmids containing DNA encoding for predicted and randomly-generated clones were transformed into yeast and induced for expression on the yeast cell surface as described above. Next, we analyzed the predicted and randomly-generated EETI loop 3 clones by dual-color flow cytometry for yeast cell surface expression and binding to fluorescent trypsin, indicating retention of the knottin fold (Figure 8). […] Overall, the least-similar predicted clones also bound trypsin, but not as well as the motif-filtered clones, as expected. The small differences in trypsin binding levels of six of the least-similar predicted clones as compared to EETIwt were deemed statistically insignificant, based on single-factor ANOVA (p<0.05). […] Even the best randomly-generated clone only bound trypsin at 16% of the wild-type EETI trypsin binding level. The successful prediction of nine-amino acid sequences that can be substituted into EETI loop 3 without disrupting the knottin fold highlights the potential of this combinatorial approach for rational protein engineering applications.
Figure 8 Trypsin-binding levels of EETI loop 3 predicted and randomly-generated clones. […] Predicted clones are preceded with a ‘p’ while randomly-generated clones are preceded with an ‘r.’ Protein expression levels were quantified by immunofluorescence staining of the cMyc epitope tag. Retention of the knottin fold was determined by binding of fluorescently-labeled trypsin (25 nM). Trypsin binding levels were adjusted to account for differences in protein expression levels and then normalized to the trypsin-binding level of EETIwt. Trypsin-binding experiments were performed in triplicate and error bars denote standard deviations.
YPD media contained 20 g/L dextrose, 20 g/L peptone, and 10 g/L yeast extract. Selective SD-CAA media contained 20 g/L dextrose, 6.7 g/L yeast nitrogen base without amino acids, 5.4 g/L Na2HPO4, 8.6 g/L NaH2PO4⋅H2O, and 5 g/L Bacto casamino acids. Selective SD-CAA plates were of the same composition as the liquid media except with the addition of 182 g/L sorbitol and 15 g/L agar. SG-CAA media was identical to the SD-CAA media except dextrose was replaced with galactose. PBSA was composed of phosphate buffered saline containing 1 g/L bovine serum albumin. Lyophilized trypsin was purchased from Sigma Aldrich and fluorescently labeled with Alexa Fluor 488 tetrafluorophenyl ester (Invitrogen). Mouse anti-cMyc antibody was purchased from Covance and goat anti-mouse antibody conjugated to R-phycoerythrin was purchased from Sigma Aldrich.
Four rounds of FACS were performed on each EETI loop-substituted library to obtain an enriched pool of trypsin-binding clones. Libraries of yeast clones induced for protein expression were suspended in PBSA with mouse anti-cMyc monoclonal antibody (1∶50 dilution) and incubated for 1 h at room temperature. Yeast were pelleted by centrifugation at 4,000 rpm for 5 min, the supernatant was aspirated, and cells were washed with ice-cold PBSA. Washed yeast libraries were resuspended in PBSA with goat anti-mouse R-phycoerythrin secondary antibody (1∶25 dilution) and Alexa 488-labeled trypsin and incubated on ice in the dark for 30 min. […] Collected library clones were propagated in SD-CAA media with penicillin-streptomycin (400 µg/mL), induced for protein expression in SG-CAA media and subjected to three additional rounds of sorting. For the first round of sorting, approximately 2×10^7 yeast were sorted from each library, and at least 10 times the number of collected yeast were sorted in each subsequent round to decrease the probability of losing unique clones. Sort stringency was increased by gradually decreasing the concentration of Alexa488-labeled trypsin from 200 nM in the first round to 25 nM in the fourth round. […]

[2] = target: trypsin; test: equilibrium binding of fluorescently-labeled trypsin to yeast-displayed EETIwt (flow cytometry); details: data not shown
Text: We measured cell surface expression levels of the EETIwt fusion protein by flow cytometry, after staining yeast cells with a primary antibody against a C-terminal cMyc epitope tag followed by the addition of a fluorescently-labeled secondary antibody. […] (Figure 2).
Figure 2 Yeast surface display of EETI knottins and isolation of properly folded EETI loop-substituted clones. […] Density plots depict protein expression (x-axis) versus trypsin binding (y-axis) for enriched pools of loop-substituted clones after four rounds of sorting. […] (C) The progression of enrichment for properly folded EETI loop-substituted variants was monitored by flow cytometry and quantified by trypsin binding levels (at 25 nM), normalized for differences in protein expression levels. Unsorted libraries (white), libraries after two rounds of sorting (light grey), and libraries after four rounds of sorting (dark grey), as compared to EETIwt (striped). Trypsin-binding experiments were performed in triplicate and error bars denote standard deviations.
YPD media contained 20 g/L dextrose, 20 g/L peptone, and 10 g/L yeast extract. Selective SD-CAA media contained 20 g/L dextrose, 6.7 g/L yeast nitrogen base without amino acids, 5.4 g/L Na2HPO4, 8.6 g/L NaH2PO4⋅H2O, and 5 g/L Bacto casamino acids. […]

[3] = 25 nM fluorescently-labeled trypsin

NRNRKTPGY (disulfide (positions not given here)) [p3, motif-filtered predicted EETI loop 3 clone, …]
trypsin binding level as percentage of EETIwt [1, 3]: approximately 70%

NNTNTGRGY (disulfide (positions not given here)) [p20, least-similar predicted EETI loop 3 clone, …]
trypsin binding level as percentage of EETIwt [1, 3]: approximately 30% | statistical significance of trypsin binding level over the highest-binding randomly-generated clone [1]: statistically significant over the highest-binding randomly-generated clone

RRNRKTLGY (disulfide) [p9, motif-filtered predicted EETI loop 3 clone, …]
trypsin binding level relative to EETIwt (fold higher) [1, 3]: roughly 1.5 -fold

Ecballium elaterium trypsin inhibitor II [EETIwt]
Kd ([2]; Alexa Fluor 488-labeled trypsin, read-out: approximate equilibrium binding constant): ~25 nM | trypsin binding specificity, in words ([2]; fluorescently-labeled trypsin): bound specifically

NRNRRRTGY (disulfide (positions not given here)) [p1, motif-filtered predicted EETI loop 3 clone, …]
trypsin binding level relative to EETIwt (fold higher) [1, 3]: roughly 1.5 -fold

potato carboxypeptidase inhibitor: a knottin that does not bind trypsin; negative control (QQHADPICNKPCKTHDDCSGAWFCQACWNSARTCGPYVG; ends and bridges not checked; cysteine pairing not given here; UniProt P01075 1-39, looked up) [reference compound]
trypsin binding level as percentage of EETIwt [1, 3]: < 5% | trypsin binding, in words ([1]; 25 nM fluorescently-labeled trypsin, yeast surface display): does not bind trypsin

NTTNNSPGY (disulfide (positions not given here)) [p25, least-similar predicted EETI loop 3 clone, …]
trypsin binding level as percentage of EETIwt [1, 3]: approximately 30% | statistical significance of trypsin binding level over the highest-binding randomly-generated clone [1]: statistically significant over the highest-binding randomly-generated clone

Source: publication PMC2725296, “Interrogating and Predicting Tolerated Sequence Diversity in Protein Folds: Application to E. elaterium Trypsin Inhibitor-II Cystine-Knot Miniprotein” (PLoS Computational Biology, 2009)
